Columns and labels:
Bile acid receptor = molecular target: T1, Bile acid receptor (Homo sapiens, UniProt Q96RI1); test: (§1) Agonist activity at human farnesoid-X-receptor expressed in HEK293T cells co-expressing human RXRalpha assessed as receptor activation after 20 hrs by dual luciferase reporter assay; type: cell-based, HEK-293T
T1 sequence (Q96RI1 whole entry): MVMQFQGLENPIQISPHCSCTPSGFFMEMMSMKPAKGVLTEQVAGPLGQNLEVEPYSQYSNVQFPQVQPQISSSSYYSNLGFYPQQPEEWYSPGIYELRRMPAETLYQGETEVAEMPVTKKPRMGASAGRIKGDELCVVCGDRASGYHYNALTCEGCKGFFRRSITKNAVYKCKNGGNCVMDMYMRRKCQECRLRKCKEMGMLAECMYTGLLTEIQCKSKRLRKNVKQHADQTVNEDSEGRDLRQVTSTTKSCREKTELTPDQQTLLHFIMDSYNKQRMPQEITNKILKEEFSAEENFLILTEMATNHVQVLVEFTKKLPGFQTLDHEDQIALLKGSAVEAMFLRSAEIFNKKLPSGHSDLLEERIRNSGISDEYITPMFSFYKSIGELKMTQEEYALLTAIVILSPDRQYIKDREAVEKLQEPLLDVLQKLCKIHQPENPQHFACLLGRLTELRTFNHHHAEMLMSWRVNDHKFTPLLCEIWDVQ

[1] = molecular target: T2, Bile acid receptor (Homo sapiens) (UniProt Q96RI1); test: as §1; type: cell-based; settings: HEK-293T
T2 sequence (whole entry): T1 sequence (Q96RI1 whole entry)

| Compound | EC50 (Bile acid receptor) | Activity [1] |
| --- | --- | --- |
| CC(C)(C)OC(=O)/N=C(/NCCc1cc(NC(=O)Nc2ccncc2)no1)NC(=O)OC(C)(C)C | 29.9 µM | Dose-dependent effect |
| CC(C)(C)OC(=O)/N=C(\NCCCc1cc(C(=O)NCc2ccncc2)no1)NC(=O)OC(C)(C)C | 15.4 µM | Dose-dependent effect |
